Measured values taken from ChEMBL document CHEMBL5634135, “Design, synthesis, and biological evaluation of quinoline-piperazine/pyrrolidine derivatives as possible antileishmanial agents” (Eur J Med Chem, 2023).
Active and inactive are the calls of the source. The calls are words filed in the database; no cut-off is given here.

What was measured:
[1] = test system: Leishmania donovani; assay: Antileishmanial activity against amastigote form of luciferase expressing Leishmania donovani MHOM/IN/80/Dd8 infected in mouse J774.A1 cells assessed as inhibition of parasite growth measured after 72 hrs by luciferase reporter gene assay; type: functional, organism-based; details: MHOM/IN/80/Dd8, J774.A1, 72 h
[2] = Cytotoxicity against mouse J774.A1 cells assessed as reduction in cell viability incubated for 48 hrs by MTT assay; type: toxicity, cell-based
[3] = Safety index, ratio of CC50 for cytotoxicity against mouse J774.A1 cells to IC50 for antileishmanial activity against amastigote form of luciferase expressing Leishmania donovani MHOM/IN/80/Dd8 infected in mouse J774.A1; type: toxicity, cell-based; details: read-out: Ratio CC50/IC50
[4] = test system: Leishmania donovani; assay: Antileishmanial activity against Leishmania donovani assessed as inhibition of parasite growth; type: functional, organism-based
[5] = test system: Leishmania infantum; assay: Antileishmanial activity against promastigote form of Leishmania infantum BCN150 overexpressing iRFP assessed as inhibition of parasite growth measured after 52 hrs; type: functional, organism-based; details: BCN150, 52 h
[6] = test system: Leishmania infantum; assay: Antileishmanial activity against amastigote form of Leishmania infantum BCN150 overexpressing iRFP assessed as inhibition of parasite growth measured after 52 hrs; type: functional, organism-based; details: BCN150, 52 h
[7] = test system: Leishmania donovani; assay: Antileishmanial activity against amastigote form of luciferase expressing Leishmania donovani MHOM/IN/80/Dd8 infected in mouse J774.A1 cells assessed as inhibition of parasite growth at 50 uM measured after 72 hrs by luciferase reporter gene assay; type: functional, organism-based
[8] = Cmax in golden hamster at 50 mg/kg, ip measured for 24 hrs by LC-MS/MS analysis; type: ADME, organism-based, Mesocricetus auratus; details: in vivo
[9] = Tmax in golden hamster at 50 mg/kg, ip measured for 24 hrs by LC-MS/MS analysis; type: ADME, organism-based, Mesocricetus auratus; details: in vivo
[10] = test system: Leishmania donovani; assay: Antileishmanial activity against amastigote form of Leishmania donovani infected in golden hamster assessed as reduction in parasite load in spleen at 50 mg/kg, ip administered for 5 days and measured on day 7 post-drug treatment by Giemsa staining based analysis; type: functional; details: 288 h, time 12 day
[11] = Toxicity against golden hamster infected with amastigote form of Leishmania donovani assessed as discomfort at 50 mg/kg, ip administered for 5 days; type: organism-based, Mesocricetus auratus; details: in vivo, 120 h, time 5 day
[12] = Toxicity against golden hamster infected with amastigote form of Leishmania donovani assessed as animal's death at 50 mg/kg, ip administered for 5 days; type: organism-based, Mesocricetus auratus; details: in vivo, 120 h, time 5 day
[13] = test system: Leishmania donovani; assay: Antileishmanial activity against amastigote form of Leishmania donovani infected in golden hamster assessed as reduction in parasite load in spleen at 50 mg/kg, ip administered for 5 days and measured on day 28 post-dug treatment by Giemsa staining based analysis; type: functional; details: 792 h, time 33 day
[14] = AUC in golden hamster at 50 mg/kg, ip measured for 24 hrs by LC-MS/MS analysis; type: ADME, organism-based, Mesocricetus auratus; details: in vivo
[15] = MRT in golden hamster at 50 mg/kg, ip measured for 24 hrs by LC-MS/MS analysis; type: ADME, organism-based, Mesocricetus auratus; details: in vivo
[16] = Toxicity against golden hamster infected with amastigote form of Leishmania donovani assessed as skin rashes at 50 mg/kg, ip administered for 5 days; type: organism-based, Mesocricetus auratus; details: in vivo, 120 h, time 5 day
[17] = Half life in golden hamster at 50 mg/kg, ip measured for 24 hrs by LC-MS/MS analysis; type: ADME, organism-based, Mesocricetus auratus; details: in vivo
[18] = Clearance in golden hamster at 50 mg/kg, ip measured for 24 hrs by LC-MS/MS analysis; type: ADME, organism-based, Mesocricetus auratus; details: in vivo
[19] = Volume of distribution in golden hamster at 50 mg/kg, ip measured for 24 hrs by LC-MS/MS analysis; type: ADME, organism-based, Mesocricetus auratus; details: in vivo

SMILES | IC50 [1] [µM] | CC50 at 48 h [2] [µM] | selectivity ratio [3] | inhibition [7] | also measured
OC(COc1ccc(-c2cc(-c3ccccc3Cl)c3cc(Cl)ccc3n2)cc1)CN1CCN(c2ccccn2)CC1 (stereo not drawn) | 5.56 | 41.9 | 7.52 |  | 
OC(COc1ccc(-c2cc(-c3ccccc3)c3ccccc3n2)cc1)CN1CCN(c2ccccn2)CC1 (stereo not drawn) | 7.01 | 27.2 | 3.88 |  | 
OC(COc1ccc(-c2cc(-c3ccccc3)c3ccc(Br)cc3n2)cc1)CN1CCCC1 (stereo not drawn) | 5.32 | 49.7 | 9.34 |  | 
NC(CC(=O)N1CC(CO)C(c2ccc(Cl)cc2)C1)Cc1ccc(Cl)cc1 (stereo not drawn) |  |  |  |  | IC50 [4]: 0.093 µM
OC(COc1ccc(-c2cc(-c3ccccc3)c3ccccc3n2)cc1)CN1CCCC1 (stereo not drawn) | 4.38 | 20.8 | 4.73 |  | 
COc1ccccc1N1CCN(C(=O)CN(Cc2ccccc2)c2ccc(Cl)cc2)CC1 |  |  |  |  | IC50 [5]: 3.61 µM; IC50 [6]: 44.1 µM
CCCCCCCCCCCCCCCCOP(=O)([O-])OCC[N+](C)(C)C [MILTEFOSINE] | 9.25 |  | 5.76 |  | 
OC(COc1ccc(-c2cc(-c3ccccc3Cl)c3cc(Cl)ccc3n2)cc1)CN1CCN(c2ccccc2F)CC1 (stereo not drawn) |  |  |  | inactive | 
OC(COc1ccc(-c2cc(-c3ccccc3)c3cc(Cl)ccc3n2)cc1)CN1CCN(c2cccc(Cl)c2Cl)CC1 (stereo not drawn) |  |  |  | inactive | 
OC(COc1ccc(-c2cc(-c3ccccc3F)c3cc(Cl)ccc3n2)cc1)CN1CCN(c2cccc(Cl)c2Cl)CC1 (stereo not drawn) |  |  |  | inactive | 
O=[N+]([O-])c1ccc2nc(-c3ccc(OCC(O)CN4CCCC4)cc3)cc(-c3ccccc3)c2c1 (stereo not drawn) |  |  |  | inactive | 
OC(COc1ccc(-c2cc(-c3ccccc3Cl)c3cc(Cl)ccc3n2)cc1)CN1CCN(c2ccccc2)CC1 (stereo not drawn) |  |  |  | inactive | 
O=C(c1ccco1)N1CCN(CC(O)COc2ccc(-c3cc(-c4ccccc4)c4ccccc4n3)cc2)CC1 (stereo not drawn) | 8.22 | 21.8 | 2.64 |  | 
Cc1ccc2c(-c3ccccc3)cc(-c3ccc(OCC(O)CN4CCCC4)cc3)nc2c1 (stereo not drawn) |  |  |  | inactive | 
OC(COc1ccc(-c2ccc3ccccc3n2)cc1)CN1CCCC1 (stereo not drawn) | 8.89 | 54.7 | 6.15 |  | 
OC(COc1ccc(-c2cc(-c3ccccc3F)c3cc(Cl)ccc3n2)cc1)CN1CCCC1 (stereo not drawn) | 2.4 | 22.7 | 9.41 |  | 
NC(=O)C1CCN(CC(O)COc2ccc(-c3cc(-c4ccccc4)c4ccccc4n3)cc2)CC1 (stereo not drawn) |  |  |  | inactive | 
O=C(c1ccco1)N1CCN(CC(O)COc2ccc(-c3cc(-c4ccccc4)c4cc(Cl)ccc4n3)cc2)CC1 (stereo not drawn) | 8.13 | 57.8 | 7.1 |  | 
OC(COc1ccc(-c2cc(-c3ccccc3)c3cc(Cl)ccc3n2)cc1)CN1CCN(c2ccccc2)CC1 (stereo not drawn) |  |  |  | inactive | 

SMILES | IC50 [1] [µM] | CC50 at 48 h [2] [µM] | selectivity ratio [3] | inhibition [7] | also measured
OC(COc1ccc(-c2cc(-c3ccccc3Cl)c3cc(Cl)ccc3n2)cc1)CN1CCN(c2ccccc2Cl)CC1 (stereo not drawn) |  |  |  | inactive | 
Cc1ccc(Cl)cc1N1CCN(CC(O)COc2ccc(-c3cc(-c4ccccc4Cl)c4cc(Cl)ccc4n3)cc2)CC1 (stereo not drawn) |  |  |  | inactive | 
OC(COc1ccc(-c2cc(-c3ccccc3)c3ccccc3n2)cc1)CN1CCN(c2ccccc2)CC1 (stereo not drawn) | 5.39 | 21.5 | 3.98 |  | 
OC(COc1ccc(-c2cc(-c3ccccc3)c3ccccc3n2)cc1)CN1CCN(c2cccc(Cl)c2Cl)CC1 (stereo not drawn) |  |  |  | inactive | 
COc1ccc(N2CCN(CC(O)COc3ccc(-c4cc(-c5ccccc5Cl)c5cc(Cl)ccc5n4)cc3)CC2)cc1 (stereo not drawn) |  |  |  | inactive | 
O=C(c1ccco1)N1CCN(CC(O)COc2ccc(-c3cc(-c4ccccc4Cl)c4cc(Cl)ccc4n3)cc2)CC1 (stereo not drawn) |  |  |  | inactive | 
OC(COc1ccc(-c2cc(-c3ccccc3Cl)c3cc(Cl)ccc3n2)cc1)CN1CCN(c2cccc(Cl)c2Cl)CC1 (stereo not drawn) | 5.39 | 63.5 | 11.8 |  | Cmax [8]: 9930 ng/mL; Tmax [9]: 2 h; inhibition in vivo at 50 mg/kg [10]: 40.7%; Activity [11]: Non-Toxic; Activity [12]: Non-Toxic; inhibition in vivo at 50 mg/kg [13]: 56.3%; AUC at 24 h [14]: 32900 ng·h/mL; MRT [15]: 5.56 h; Activity [16]: Non-Toxic; half-life [17]: 5 h; CL/F [18]: 25.8 mL/min/kg; Vd [19]: 11.25 L/kg
Cc1ccc(Cl)cc1N1CCN(CC(O)COc2ccc(-c3cc(-c4ccccc4)c4ccccc4n3)cc2)CC1 (stereo not drawn) |  |  |  | inactive | 
Cc1ccc2c(-c3ccccc3)cc(-c3ccc(OCC(O)CN4CCN(c5cccc(Cl)c5Cl)CC4)cc3)nc2c1 (stereo not drawn) |  |  |  | inactive | 
OC(COc1ccc(-c2cc(-c3ccccc3)c3cc(Cl)ccc3n2)cc1)CN1CCCC1 (stereo not drawn) | 2.09 | 21.4 | 10.3 |  | Cmax [8]: 17600 ng/mL; Tmax [9]: 2 h; inhibition in vivo at 50 mg/kg [10]: 27.8%; Activity [11]: Non-Toxic; Activity [12]: Non-Toxic; inhibition in vivo at 50 mg/kg [13]: 49.3%; AUC at 24 h [14]: 85000 ng·h/mL; MRT [15]: 6.35 h; Activity [16]: Non-Toxic; half-life [17]: 4.67 h; CL/F [18]: 9.5 mL/min/kg; Vd [19]: 3.88 L/kg
OC(COc1ccc(-c2ccc3ccccc3n2)cc1)CN1CCN(c2cccc(Cl)c2Cl)CC1 (stereo not drawn) |  |  |  | inactive | 
Cc1cc(-c2ccc(OCC(O)CN3CCN(c4cccc(Cl)c4Cl)CC3)cc2)nc2ccccc12 (stereo not drawn) |  |  |  | inactive | 
OC(COc1ccc(-c2cc(-c3ccccc3)c3ccccc3n2)cc1)Cn1cncn1 (stereo not drawn) |  |  |  | inactive | 
O=[N+]([O-])c1ccc2nc(-c3ccc(OCC(O)CN4CCN(c5cccc(Cl)c5Cl)CC4)cc3)cc(-c3ccccc3)c2c1 (stereo not drawn) |  |  |  | inactive | 
OC(COc1ccc(-c2cc(-c3ccccc3)c3ccccc3n2)cc1)Cn1ccnc1 (stereo not drawn) | 3.37 | 34 | 10.1 |  | 
OC(COc1ccc(-c2cc(-c3ccccc3)c3ccc(Br)cc3n2)cc1)CN1CCN(c2cccc(Cl)c2Cl)CC1 (stereo not drawn) |  |  |  | inactive | 
OC(COc1ccc(-c2cc(-c3ccccc3)c3ccccc3n2)cc1)CN1CCN(c2ccccc2F)CC1 (stereo not drawn) |  |  |  | inactive | 
CCOC(=O)N1CCN(CC(O)COc2ccc(-c3cc(-c4ccccc4)c4cc(Cl)ccc4n3)cc2)CC1 (stereo not drawn) |  |  |  | inactive | 
Cc1ncc([N+](=O)[O-])n1CC(O)COc1ccc(-c2cc(-c3ccccc3)c3ccccc3n2)cc1 (stereo not drawn) |  |  |  | inactive | 
